Columns and labels:
HCT-15 = experiment: Cytotoxicity against human HCT-15 cells assessed as growth inhibition at 10 uM after 48 hrs by sulforhodamine B assay; type: functional; details: read-out: GI
[1] = Cytotoxicity against human Hs 578T cells assessed as growth inhibition at 10 uM after 48 hrs by sulforhodamine B assay; type: functional; details: read-out: GI
SW-620 = experiment: Cytotoxicity against human SW-620 cells assessed as growth inhibition at 10 uM after 48 hrs by sulforhodamine B assay; type: functional; details: read-out: GI
MDA-MB-468 = experiment: Cytotoxicity against human MDA-MB-468 cells assessed as growth inhibition at 10 uM after 48 hrs by sulforhodamine B assay; type: functional; details: read-out: GI
HCT-116 = experiment: Cytotoxicity against human HCT-116 cells assessed as growth inhibition at 10 uM after 48 hrs by sulforhodamine B assay; type: functional; details: read-out: GI
MCF7 [2] = experiment: Cytotoxicity against human MCF7 cells assessed as growth inhibition at 10 uM after 48 hrs by sulforhodamine B assay; type: functional; details: read-out: GI
[3] = target: Phosphatidylinositol 4,5-bisphosphate 3-kinase catalytic subunit alpha isoform (Homo sapiens, UniProt P42336); experiment: Inhibition of PI3Kalpha (unknown origin) using PIP2 as substrate preincubated for 10 mins followed by substrate addition and measured after 1 hr by ELISA
Sequence of Phosphatidylinositol 4,5-bisphosphate 3-kinase catalytic subunit alpha isoform (P42336 whole entry, canonical isoform): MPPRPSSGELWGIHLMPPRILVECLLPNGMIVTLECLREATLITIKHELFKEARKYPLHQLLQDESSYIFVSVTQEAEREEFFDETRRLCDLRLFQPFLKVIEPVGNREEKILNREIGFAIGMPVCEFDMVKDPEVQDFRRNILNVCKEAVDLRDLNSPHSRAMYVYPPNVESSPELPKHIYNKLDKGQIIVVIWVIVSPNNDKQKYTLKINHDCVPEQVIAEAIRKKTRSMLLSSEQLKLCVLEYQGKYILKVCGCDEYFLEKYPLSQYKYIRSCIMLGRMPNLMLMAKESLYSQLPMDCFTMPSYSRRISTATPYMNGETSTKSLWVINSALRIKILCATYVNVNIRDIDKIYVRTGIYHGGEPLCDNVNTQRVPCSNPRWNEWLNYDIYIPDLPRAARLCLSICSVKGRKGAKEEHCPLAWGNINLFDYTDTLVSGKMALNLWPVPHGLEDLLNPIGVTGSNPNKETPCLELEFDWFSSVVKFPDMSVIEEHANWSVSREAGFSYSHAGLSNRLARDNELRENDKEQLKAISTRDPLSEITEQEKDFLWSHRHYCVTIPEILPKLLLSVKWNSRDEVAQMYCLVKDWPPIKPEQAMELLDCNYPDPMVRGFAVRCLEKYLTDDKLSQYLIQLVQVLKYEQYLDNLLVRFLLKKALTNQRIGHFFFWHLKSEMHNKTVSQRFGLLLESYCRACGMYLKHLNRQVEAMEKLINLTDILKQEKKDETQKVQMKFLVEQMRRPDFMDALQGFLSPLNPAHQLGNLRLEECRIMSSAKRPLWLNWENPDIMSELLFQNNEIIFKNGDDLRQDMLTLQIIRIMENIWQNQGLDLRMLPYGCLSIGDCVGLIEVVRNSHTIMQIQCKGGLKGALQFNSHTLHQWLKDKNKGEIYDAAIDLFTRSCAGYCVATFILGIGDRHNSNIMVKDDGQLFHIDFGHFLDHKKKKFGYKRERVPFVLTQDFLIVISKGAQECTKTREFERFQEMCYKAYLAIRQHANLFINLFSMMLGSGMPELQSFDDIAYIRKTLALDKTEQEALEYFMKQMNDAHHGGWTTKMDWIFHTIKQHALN

CCRF-CEM = experiment: Cytotoxicity against human CCRF-CEM cells assessed as growth inhibition at 10 uM after 48 hrs by sulforhodamine B assay; type: functional; details: read-out: GI
K562 = experiment: Cytotoxicity against human K562 cells assessed as growth inhibition at 10 uM after 48 hrs by sulforhodamine B assay; type: functional; details: read-out: GI
OVCAR-8 = experiment: Cytotoxicity against human OVCAR8 cells assessed as growth inhibition at 10 uM after 48 hrs by sulforhodamine B assay; type: functional; details: read-out: GI
MCF-10A = experiment: Cytotoxicity against human MCF10A cells assessed as inhibition of cell growth incubated for 48 hrs by MTT assay; type: cell-based
MCF7 [4] = experiment: Induction of cell cycle arrest in human MCF7 cells assessed as accumulation of cells at G2/M phase at IC50 concentration by Propidium iodide staining based flow cytometric analysis (reference value: 10.94%); type: functional
UO-31 = experiment: Cytotoxicity against human UO-31 cells assessed as growth inhibition at 10 uM after 48 hrs by sulforhodamine B assay; type: functional; details: read-out: GI
MCF7 [5] = experiment: Induction of apoptosis in human MCF7 cells assessed as early apoptotic cells at 13.30 uM after 48 hrs by annexin V-FITC/propidium iodide staining based flow cytometric analysis (reference value: 0.36%); type: functional; details: dose 13.3 µM
[6] = Selectivity index, ratio of IC50 for human MCF-10A cells to IC50 for human MCF7 cells; type: toxicity; details: MCF-10A cells versus MCF7 cells, read-out: Ratio IC50
SF-295 = experiment: Cytotoxicity against human SF-295 cells assessed as growth inhibition at 10 uM after 48 hrs by sulforhodamine B assay; type: functional; details: read-out: GI
LOX IMVI = experiment: Cytotoxicity against human LOX IMVI cells assessed as growth inhibition at 10 uM after 48 hrs by sulforhodamine B assay; type: functional; details: read-out: GI
NCI-H522 = experiment: Cytotoxicity against human NCI-H522 cells assessed as growth inhibition at 10 uM after 48 hrs by sulforhodamine B assay; type: functional; details: read-out: GI
[7] = target: Phosphatidylinositol 4,5-bisphosphate 3-kinase catalytic subunit beta isoform (Homo sapiens, UniProt P42338); experiment: Inhibition of PI3Kbeta (unknown origin) using PIP2 as substrate preincubated for 10 mins followed by substrate addition and measured after 1 hr by ELISA
Sequence of Phosphatidylinositol 4,5-bisphosphate 3-kinase catalytic subunit beta isoform (P42338 whole entry, canonical isoform): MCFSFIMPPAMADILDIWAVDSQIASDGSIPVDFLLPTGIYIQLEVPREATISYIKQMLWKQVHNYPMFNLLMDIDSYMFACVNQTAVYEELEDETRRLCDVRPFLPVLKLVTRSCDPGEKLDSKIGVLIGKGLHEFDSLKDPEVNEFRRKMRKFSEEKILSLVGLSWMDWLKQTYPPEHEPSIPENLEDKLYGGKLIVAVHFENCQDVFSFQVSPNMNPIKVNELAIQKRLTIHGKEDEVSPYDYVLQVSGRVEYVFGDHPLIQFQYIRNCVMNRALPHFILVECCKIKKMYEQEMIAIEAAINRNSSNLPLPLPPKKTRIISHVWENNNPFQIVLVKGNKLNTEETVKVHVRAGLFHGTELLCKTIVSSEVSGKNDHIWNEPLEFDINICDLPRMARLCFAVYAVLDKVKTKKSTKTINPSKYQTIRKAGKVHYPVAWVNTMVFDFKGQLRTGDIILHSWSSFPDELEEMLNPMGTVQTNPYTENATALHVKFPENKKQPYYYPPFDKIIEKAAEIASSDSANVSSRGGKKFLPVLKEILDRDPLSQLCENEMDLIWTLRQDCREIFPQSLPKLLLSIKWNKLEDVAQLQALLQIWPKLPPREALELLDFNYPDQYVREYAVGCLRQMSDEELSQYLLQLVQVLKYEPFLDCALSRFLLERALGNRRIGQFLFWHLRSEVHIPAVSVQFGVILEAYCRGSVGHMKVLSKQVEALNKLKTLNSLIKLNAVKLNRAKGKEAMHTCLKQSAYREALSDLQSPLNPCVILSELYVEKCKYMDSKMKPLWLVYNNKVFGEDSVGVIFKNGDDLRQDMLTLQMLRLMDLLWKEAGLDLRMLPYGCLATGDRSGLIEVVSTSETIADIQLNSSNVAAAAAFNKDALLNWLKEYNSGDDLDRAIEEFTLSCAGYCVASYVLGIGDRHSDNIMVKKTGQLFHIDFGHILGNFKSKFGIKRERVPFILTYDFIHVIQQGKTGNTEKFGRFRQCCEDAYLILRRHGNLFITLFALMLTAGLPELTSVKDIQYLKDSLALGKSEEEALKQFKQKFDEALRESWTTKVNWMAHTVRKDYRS

SF-268 = experiment: Cytotoxicity against human SF-268 cells assessed as growth inhibition at 10 uM after 48 hrs by sulforhodamine B assay; type: functional; details: read-out: GI
MCF7 [8] = experiment: Induction of cell cycle arrest in human MCF7 cells assessed as accumulation of cells at G1 phase at IC50 concentration by Propidium iodide staining based flow cytometric analysis (reference value: 61.45%); type: functional
HOP-62 = experiment: Cytotoxicity against human HOP-62 cells assessed as growth inhibition at 10 uM after 48 hrs by sulforhodamine B assay; type: functional; details: read-out: GI
SN12C = experiment: Cytotoxicity against human SN12C cells assessed as growth inhibition at 10 uM after 48 hrs by sulforhodamine B assay; type: functional; details: read-out: GI
SNB-75 = experiment: Cytotoxicity against human SNB-75 cells assessed as growth inhibition at 10 uM after 48 hrs by sulforhodamine B assay; type: functional; details: read-out: GI
SNB-19 = experiment: Cytotoxicity against human SNB-19 cells assessed as growth inhibition at 10 uM after 48 hrs by sulforhodamine B assay; type: functional; details: read-out: GI
NCI-H460 = experiment: Cytotoxicity against human NCI-H460 cells assessed as growth inhibition at 10 uM after 48 hrs by sulforhodamine B assay; type: functional; details: read-out: GI
MOLT-4 = experiment: Cytotoxicity against human MOLT-4 cells assessed as growth inhibition at 10 uM after 48 hrs by sulforhodamine B assay; type: functional; details: read-out: GI
ACHN = experiment: Cytotoxicity against human ACHN cells assessed as growth inhibition at 10 uM after 48 hrs by sulforhodamine B assay; type: functional; details: read-out: GI
SR = experiment: Cytotoxicity against human SR cells assessed as growth inhibition at 10 uM after 48 hrs by sulforhodamine B assay; type: functional; details: read-out: GI
UACC-62 = experiment: Cytotoxicity against human UACC-62 cells assessed as growth inhibition at 10 uM after 48 hrs by sulforhodamine B assay; type: functional; details: read-out: GI
MCF7 [9] = experiment: Induction of cell cycle arrest in human MCF7 cells assessed as accumulation of cells at G phase at IC50 concentration by Propidium iodide staining based flow cytometric analysis (reference value: 1.76%); type: functional
U-251 = experiment: Cytotoxicity against human U-251 cells assessed as growth inhibition at 10 uM after 48 hrs by sulforhodamine B assay; type: functional; details: read-out: GI

**Q.** With `COC(=O)/C=C1\S/C(=N\N=C\c2ccc(OCC(F)(F)F)cc2)N(c2ccccc2)C1=O` as the molecule, how does the inhibition of growth at 10 µM (HCT-15) read?
**A.** 17.3%

**Q.** And the inhibition of growth at 10 µM [1]?
**A.** 43%

**Q.** What about the inhibition of growth at 10 µM (SW-620) of the same molecule?
**A.** 12.4%

**Q.** What about the inhibition of growth at 10 µM (MDA-MB-468) of the same molecule?
**A.** 47.6%

**Q.** And the inhibition of growth at 10 µM (HCT-116)?
**A.** 28.8%

**Q.** What about the inhibition of growth at 10 µM (MCF7 [2]) of the same molecule?
**A.** 33.2%

**Q.** And the IC50 [3]?
**A.** 77.5 µM

**Q.** And the inhibition of growth at 10 µM (CCRF-CEM)?
**A.** 13.5%

**Q.** What about the inhibition of growth at 10 µM (K562) of the same molecule?
**A.** 25.7%

**Q.** What about the inhibition of growth at 10 µM (OVCAR-8) of the same molecule?
**A.** 35.5%

**Q.** What about the IC50 (MCF-10A) of the same molecule?
**A.** 24.2 µM

**Q.** And the Activity (MCF7 [4])?
**A.** 8.51%

**Q.** And the inhibition of growth at 10 µM (UO-31)?
**A.** 24.8%

**Q.** And the Activity (MCF7 [5])?
**A.** 2.71%

**Q.** And the selectivity ratio [6]?
**A.** 1.81

**Q.** What about the inhibition of growth at 10 µM (SF-295) of the same molecule?
**A.** 13.2%

**Q.** What about the inhibition of growth at 10 µM (LOX IMVI) of the same molecule?
**A.** 24.1%

**Q.** What about the inhibition of growth at 10 µM (NCI-H522) of the same molecule?
**A.** 12.2%

**Q.** What about the IC50 [7] of the same molecule?
**A.** 53.5 µM

**Q.** What about the inhibition of growth at 10 µM (SF-268) of the same molecule?
**A.** 11.8%

**Q.** What about the Activity (MCF7 [8]) of the same molecule?
**A.** 55.47%

**Q.** What about the inhibition of growth at 10 µM (HOP-62) of the same molecule?
**A.** 31.5%

**Q.** What about the inhibition of growth at 10 µM (SN12C) of the same molecule?
**A.** 28.6%

**Q.** And the inhibition of growth at 10 µM (SNB-75)?
**A.** 28.2%

**Q.** And the inhibition of growth at 10 µM (SNB-19)?
**A.** 18.2%

**Q.** And the inhibition of growth at 10 µM (NCI-H460)?
**A.** 14.2%

**Q.** What about the inhibition of growth at 10 µM (MOLT-4) of the same molecule?
**A.** 13.4%

**Q.** What about the inhibition of growth at 10 µM (ACHN) of the same molecule?
**A.** 24%

**Q.** What about the inhibition of growth at 10 µM (SR) of the same molecule?
**A.** 24.7%

**Q.** And the inhibition of growth at 10 µM (UACC-62)?
**A.** 18.9%

**Q.** And the Activity (MCF7 [9])?
**A.** 19.52%

**Q.** What about the inhibition of growth at 10 µM (U-251) of the same molecule?
**A.** 23.1%
